Data from ChEMBL document CHEMBL1909046, “DrugMatrix in vitro pharmacology data”.

Columns and labels:
[1] = target: Kappa-type opioid receptor (Homo sapiens, UniProt P41145); assay: DRUGMATRIX: Opiate kappa (OP2, KOP) radioligand binding (ligand: [3H] Diprenorphine); format: cell membranes, HEK293, Membrane; conditions: Not Active = under 50% inhibition at 10 µM
[2] = target: 5-hydroxytryptamine receptor 2B (Homo sapiens, UniProt P41595); format: cell membranes, CHO-K1, Membrane; conditions: for Ki: read-out: Ki; on all read-outs here: in other assays of this panel Not Active means under 50% inhibition at 10 µM
Chain of 5-hydroxytryptamine receptor 2B (P41595 whole entry): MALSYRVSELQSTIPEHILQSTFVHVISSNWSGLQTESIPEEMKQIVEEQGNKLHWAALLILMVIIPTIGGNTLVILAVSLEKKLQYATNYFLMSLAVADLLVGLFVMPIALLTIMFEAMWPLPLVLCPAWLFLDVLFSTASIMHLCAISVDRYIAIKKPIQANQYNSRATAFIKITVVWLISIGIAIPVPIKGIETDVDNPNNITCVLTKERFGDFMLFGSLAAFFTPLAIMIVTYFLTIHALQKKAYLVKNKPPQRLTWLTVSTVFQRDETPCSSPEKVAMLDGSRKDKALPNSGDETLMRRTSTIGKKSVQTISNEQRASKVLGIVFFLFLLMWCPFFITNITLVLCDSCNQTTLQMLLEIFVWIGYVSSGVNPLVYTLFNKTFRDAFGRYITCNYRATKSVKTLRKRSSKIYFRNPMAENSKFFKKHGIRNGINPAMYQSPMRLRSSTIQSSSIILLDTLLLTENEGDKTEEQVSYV

Cytochrome P450 1A2 = target: T1, Cytochrome P450 1A2 (Homo sapiens, UniProt P05177); conditions: bti-tn-5b1-4; further: in other assays of this panel Not Active means under 50% inhibition at 10 µM
T1 sequence (P05177 whole entry): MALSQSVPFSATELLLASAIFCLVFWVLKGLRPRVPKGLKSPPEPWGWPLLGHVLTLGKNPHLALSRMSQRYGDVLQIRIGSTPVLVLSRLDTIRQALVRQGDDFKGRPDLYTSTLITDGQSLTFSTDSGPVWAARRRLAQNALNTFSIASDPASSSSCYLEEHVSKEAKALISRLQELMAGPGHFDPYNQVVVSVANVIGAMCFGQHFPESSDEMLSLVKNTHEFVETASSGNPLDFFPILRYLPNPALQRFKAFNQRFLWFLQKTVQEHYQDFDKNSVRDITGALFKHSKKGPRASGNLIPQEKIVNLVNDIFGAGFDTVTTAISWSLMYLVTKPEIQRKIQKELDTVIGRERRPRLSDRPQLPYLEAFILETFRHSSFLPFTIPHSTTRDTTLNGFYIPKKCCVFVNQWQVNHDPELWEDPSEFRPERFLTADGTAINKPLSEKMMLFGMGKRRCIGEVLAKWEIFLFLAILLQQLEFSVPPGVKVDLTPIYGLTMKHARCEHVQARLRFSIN

Cytochrome P450 2A6 = target: T2, Cytochrome P450 2A6 (Homo sapiens, UniProt P11509); conditions: bti-tn-5b1-4; further: in other assays of this panel Not Active means under 50% inhibition at 10 µM
T2 sequence (P11509 whole entry): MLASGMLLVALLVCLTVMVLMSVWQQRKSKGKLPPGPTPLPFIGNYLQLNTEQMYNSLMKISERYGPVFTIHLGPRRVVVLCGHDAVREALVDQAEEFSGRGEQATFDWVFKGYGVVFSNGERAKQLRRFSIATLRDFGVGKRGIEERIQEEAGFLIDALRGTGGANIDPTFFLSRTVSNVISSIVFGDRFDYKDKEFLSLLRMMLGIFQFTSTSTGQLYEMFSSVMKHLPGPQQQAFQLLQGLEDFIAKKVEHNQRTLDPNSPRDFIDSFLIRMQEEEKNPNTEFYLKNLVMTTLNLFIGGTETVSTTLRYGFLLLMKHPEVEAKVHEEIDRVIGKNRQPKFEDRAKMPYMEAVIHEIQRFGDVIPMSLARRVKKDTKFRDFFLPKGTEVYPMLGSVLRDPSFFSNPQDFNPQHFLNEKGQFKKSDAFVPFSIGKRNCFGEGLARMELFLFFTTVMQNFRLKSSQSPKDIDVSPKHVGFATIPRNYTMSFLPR

[3] = target: T3, Alpha-1B adrenergic receptor (Rattus norvegicus, UniProt P15823); assay: DRUGMATRIX: Alpha-1B adrenergic receptor radioligand binding (ligand: prazosin); format: cell membranes, Wistar, Liver, Membrane; conditions: Not Active = under 50% inhibition at 10 µM
T3 sequence (P15823 whole entry): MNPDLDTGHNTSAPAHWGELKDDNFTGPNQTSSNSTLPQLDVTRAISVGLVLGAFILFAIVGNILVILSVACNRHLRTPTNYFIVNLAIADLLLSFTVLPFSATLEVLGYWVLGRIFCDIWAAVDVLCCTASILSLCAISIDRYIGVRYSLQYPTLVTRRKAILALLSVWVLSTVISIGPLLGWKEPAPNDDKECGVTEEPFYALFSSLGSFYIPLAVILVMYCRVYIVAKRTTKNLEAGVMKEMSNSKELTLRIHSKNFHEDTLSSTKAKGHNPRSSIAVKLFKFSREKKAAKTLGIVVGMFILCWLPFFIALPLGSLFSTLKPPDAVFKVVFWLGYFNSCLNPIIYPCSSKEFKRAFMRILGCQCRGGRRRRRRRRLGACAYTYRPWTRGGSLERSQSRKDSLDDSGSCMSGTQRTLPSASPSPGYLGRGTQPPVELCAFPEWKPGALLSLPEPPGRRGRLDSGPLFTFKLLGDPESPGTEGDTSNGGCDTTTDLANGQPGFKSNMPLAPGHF

Progesterone receptor = target: T4, Progesterone receptor (Bos taurus, UniProt Q690N0); assay: DRUGMATRIX: Progesterone radioligand binding (ligand: [3H] R-5020); format: tissue-based, Uterus; conditions: Not Active = under 50% inhibition at 10 µM; for Ki: read-out: Ki
T4 sequence (Q690N0 whole entry): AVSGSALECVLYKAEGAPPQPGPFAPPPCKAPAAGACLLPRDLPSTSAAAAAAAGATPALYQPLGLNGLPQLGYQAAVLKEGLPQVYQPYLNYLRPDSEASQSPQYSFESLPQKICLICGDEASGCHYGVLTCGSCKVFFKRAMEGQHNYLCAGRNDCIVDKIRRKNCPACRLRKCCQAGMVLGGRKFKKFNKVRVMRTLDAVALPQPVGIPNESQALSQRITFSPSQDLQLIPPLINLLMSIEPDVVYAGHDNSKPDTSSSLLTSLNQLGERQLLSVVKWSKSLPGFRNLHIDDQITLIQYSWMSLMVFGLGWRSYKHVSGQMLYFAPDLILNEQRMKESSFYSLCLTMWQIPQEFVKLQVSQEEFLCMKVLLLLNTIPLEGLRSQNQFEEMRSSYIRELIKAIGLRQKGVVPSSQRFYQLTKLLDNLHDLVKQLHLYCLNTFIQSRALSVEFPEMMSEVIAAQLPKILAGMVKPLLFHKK

Chain of Kappa-type opioid receptor (P41145 whole entry): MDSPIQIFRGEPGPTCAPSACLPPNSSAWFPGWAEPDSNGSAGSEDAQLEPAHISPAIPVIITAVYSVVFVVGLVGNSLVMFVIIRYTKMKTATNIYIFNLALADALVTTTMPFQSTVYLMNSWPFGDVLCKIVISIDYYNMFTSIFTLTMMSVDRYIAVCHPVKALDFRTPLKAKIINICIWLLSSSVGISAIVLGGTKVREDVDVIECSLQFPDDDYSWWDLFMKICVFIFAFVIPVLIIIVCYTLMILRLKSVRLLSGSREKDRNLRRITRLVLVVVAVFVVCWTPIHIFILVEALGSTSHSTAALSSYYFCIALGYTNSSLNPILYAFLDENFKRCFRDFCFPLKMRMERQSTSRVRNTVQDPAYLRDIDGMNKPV

Row | Compound | IC50 ([1]; hek293) | IC50 ([2]; cho-k1) | IC50 (Cytochrome P450 1A2) | Ki (Cytochrome P450 1A2) | IC50 (Cytochrome P450 2A6) | Ki (Cytochrome P450 2A6) | IC50 [3] | IC50 (Progesterone receptor; read-out: IC50) [µM] | Ki (Progesterone receptor) [µM] | IC50 (Progesterone receptor) | IC50 ([2]; read-out: IC50) [µM] | Ki [2] [µM] | Ki [1] [µM] | IC50 ([1]; read-out: IC50) [µM]
1 | C#C[C@]1(O)CC[C@H]2[C@@H]3[C@H](C)CC4=C(CCC(=O)C4)[C@H]3CC[C@@]21C [TIBOLONE] | Not Active | Not Active | Not Active | Not Active | Not Active | Not Active | Not Active | 0.22 | 0.0287 | – | – | – | – | –
2 | CN1C(=O)OC(C)(C)C1=O [TRIMETHADIONE] | Not Active | Not Active | Not Active | Not Active | Not Active | Not Active | Not Active | – | – | Not Active | – | – | – | –
3 | O=C(O)c1cc(/N=N/c2ccc(S(=O)(=O)Nc3ccccn3)cc2)ccc1O [SULFASALAZINE] | Not Active | Not Active | Not Active | Not Active | Not Active | Not Active | Not Active | – | – | Not Active | – | – | – | –
4 | O=C(c1ccccc1)c1ccc2n1CCC2C(=O)O (centres undefined) [KETOROLAC] | Not Active | Not Active | Not Active | Not Active | Not Active | Not Active | Not Active | – | – | Not Active | – | – | – | –
5 | CC[C@H](C)[C@@H](CO[C@@H](Cc1ccccc1)C(=O)N[C@@H](CCS(C)(=O)=O)C(=O)OC(C)C)NC[C@@H](N)CS | Not Active | Not Active | Not Active | Not Active | Not Active | Not Active | Not Active | – | – | Not Active | – | – | – | –
6 | CC(C)(C)NC[C@H](O)COc1cccc2c1CCCC2=O [LEVOBUNOLOL] | Not Active | Not Active | Not Active | Not Active | Not Active | Not Active | Not Active | – | – | Not Active | – | – | – | –
7 | Cc1nnc(NS(=O)(=O)c2ccc(N)cc2)s1 [SULFAMETHIZOLE] | Not Active | Not Active | Not Active | Not Active | Not Active | Not Active | Not Active | – | – | Not Active | – | – | – | –
8 | Cc1cnc(NC(=O)C2=C(O)c3ccccc3S(=O)(=O)N2C)s1 [MELOXICAM] | Not Active | Not Active | Not Active | Not Active | Not Active | Not Active | Not Active | – | – | Not Active | – | – | – | –
9 | CC1=C(/C=C/C(C)=C/C=C/C(C)=C/C(=O)O)C(C)(C)CCC1 [TRETINOIN] | Not Active | – | Not Active | Not Active | Not Active | Not Active | Not Active | – | – | Not Active | 0.358 | 0.228 | – | –
10 | Cc1ccc(S(=O)(=O)NC(=O)NN2CCCCCC2)cc1 [TOLAZAMIDE] | Not Active | Not Active | – | – | – | – | Not Active | – | – | Not Active | – | – | – | –
11 | COC(=O)Nc1nc2ccc(C(=O)c3ccccc3)cc2[nH]1 [MEBENDAZOLE] | Not Active | Not Active | Not Active | Not Active | Not Active | Not Active | Not Active | – | – | Not Active | – | – | – | –
12 | CCN(CC)CCNC(=O)c1cc(Cl)c(N)cc1OC [METOCLOPRAMIDE] | Not Active | – | Not Active | Not Active | Not Active | Not Active | Not Active | – | – | Not Active | 0.63 | 0.401 | – | –
13 | CCOc1cc(N)c(Cl)cc1C(=O)NCC1CN(Cc2ccc(F)cc2)CCO1 (centres undefined) [MOSAPRIDE] | Not Active | – | – | – | Not Active | Not Active | Not Active | – | – | Not Active | 0.296 | 0.188 | – | –
14 | Cc1ccc(Cl)c(Nc2ccccc2C(=O)O)c1Cl [MECLOFENAMIC ACID] | Not Active | Not Active | Not Active | Not Active | Not Active | Not Active | Not Active | – | – | Not Active | – | – | – | –
15 | CC(=O)O[C@]1(C(C)=O)CC[C@H]2[C@@H]3C[C@H](C)C4=CC(=O)CC[C@]4(C)[C@H]3CC[C@@]21C [MEDROXYPROGESTERONE ACETATE] | Not Active | Not Active | Not Active | Not Active | Not Active | Not Active | Not Active | 0.00225 | 0.000293 | – | – | – | – | –
16 | CCN1CCCC1CNC(=O)c1cc(S(N)(=O)=O)ccc1OC (centres undefined) [SULPIRIDE] | Not Active | Not Active | Not Active | Not Active | Not Active | Not Active | Not Active | – | – | Not Active | – | – | – | –
17 | CC(O)C(=O)O (centres undefined) [LACTIC ACID] | Not Active | Not Active | Not Active | Not Active | Not Active | Not Active | Not Active | – | – | Not Active | – | – | – | –
18 | CCC(C)(C)C(=O)O[C@H]1C[C@@H](C)C=C2C=C[C@H](C)[C@H](CC[C@@H]3C[C@@H](O)CC(=O)O3)[C@H]21 [SIMVASTATIN] | Not Active | Not Active | – | – | – | – | Not Active | – | – | Not Active | – | – | – | –
19 | Cc1ccnc(NS(=O)(=O)c2ccc(N)cc2)n1 [SULFAMERAZINE] | Not Active | Not Active | Not Active | Not Active | Not Active | Not Active | Not Active | – | – | Not Active | – | – | – | –
20 | CC#C[C@]1(O)CC[C@H]2[C@@H]3CCC4=CC(=O)CCC4=C3[C@@H](c3ccc(N(C)C)cc3)C[C@@]21C [MIFEPRISTONE] | – | Not Active | Not Active | Not Active | Not Active | Not Active | Not Active | – | – | – | – | – | 8.04 | 20.1
21 | O=C(OC[C@H]1O[C@@H](OC(=O)c2cc(O)c(O)c(OC(=O)c3cc(O)c(O)c(O)c3)c2)[C@H](OC(=O)c2cc(O)c(O)c(OC(=O)c3cc(O)c(O)c(O)c3)c2)[C@@H](OC(=O)c2cc(O)c(O)c(OC(=O)c3cc(O)c(O)c(O)c3)c2)[C@@H]1OC(=O)c1cc(O)c(O)c(OC(=O)c2cc(O)c(O)c(O)c2)c1)c1cc(O)c(O)c(OC(=O)c2cc(O)c(O)c(O)c2)c1 [TANNIC ACID] | Not Active | Not Active | – | – | Not Active | Not Active | Not Active | – | – | Not Active | – | – | – | –
22 | C=CCc1ccc2c(c1)OCO2 [SAFROLE] | Not Active | Not Active | – | – | Not Active | Not Active | Not Active | – | – | Not Active | – | – | – | –
23 | Cc1[nH]c(=O)c(C#N)cc1-c1ccncc1 [MILRINONE] | Not Active | Not Active | Not Active | Not Active | Not Active | Not Active | Not Active | – | – | – | – | – | – | –
